Source: patent publication US11702404B2, “GLP-1R modulating compounds” (priority 2019, dated 2023)
pEC50: −log10 of the molar value.

How the values were obtained:
[1] = Microsomal stability, human liver microsomes (predicted hepatic clearance); conditions: predicted from in vitro microsomal stability data
GLP-1R = GLP-1R (Homo sapiens, UniProt P43220); assay: GLP-1R activation: cAMP increase in CHO cells stably expressing GLP-1R; format: cell-based; conditions: cAMP increase, CHO cells stably expressing GLP-1R, 10 point dose response, 30 minutes incubation; read-out: EC50
Sequence of GLP-1R (P43220 24-463): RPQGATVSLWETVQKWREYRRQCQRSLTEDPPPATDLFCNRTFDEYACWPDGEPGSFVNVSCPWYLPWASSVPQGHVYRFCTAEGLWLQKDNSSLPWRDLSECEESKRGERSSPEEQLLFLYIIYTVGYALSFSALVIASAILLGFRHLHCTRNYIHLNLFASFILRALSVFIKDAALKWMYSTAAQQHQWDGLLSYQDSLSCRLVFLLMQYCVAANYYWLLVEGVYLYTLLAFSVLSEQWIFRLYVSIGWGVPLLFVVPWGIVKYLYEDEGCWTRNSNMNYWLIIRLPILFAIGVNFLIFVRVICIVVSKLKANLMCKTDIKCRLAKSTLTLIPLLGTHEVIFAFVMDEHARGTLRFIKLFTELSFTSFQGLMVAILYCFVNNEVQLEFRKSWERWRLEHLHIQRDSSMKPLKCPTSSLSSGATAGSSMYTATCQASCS

Row | SMILES | Predicted Hepatic Clearance (Pred. Cl.) [1] | pEC50 (GLP-1R)
1 | N#Cc1ccc(COc2nc(-c3cc(F)c(Cc4nc5ccc(C(=O)O)cc5n4C[C@@H]4CCO4)c(F)c3F)ncc2F)c(F)c1 [Example 166, (S)-2-(4-(4-((4-cyano-2-fluorobenzyl)oxy)-5-fluoropyrimidin-2-yl)-2,3,6-trifluorobenzyl)-1-(oxetan-2-ylmethyl)-1H-benzo[d]imidazole-6-carboxylic acid] | 4.83 mL/min/kg | 10.22
2 | CC(C#N)Cn1c(Cc2cc(F)c(-c3cccc(OCc4ccc(C#N)cc4F)n3)cc2F)nc2ccc(C(=O)O)cc21 (racemic) [Example 306, 2-(4-(6-((4-cyano-2-fluorobenzyl)oxy)pyridin-2-yl)-2,5-difluorobenzyl)-1-(2-cyanopropyl)-1H-benzo[d]imidazole-6-carboxylic acid] | 6 mL/min/kg | 8.73
3 | COCCn1c(Cc2ccc(-c3nc(OCc4ccc(C#N)cc4F)ccc3F)cc2F)nc2ccc(C(=O)O)cc21 [Example 91, 2-(4-(6-((4-cyano-2-fluorobenzyl)oxy)-3-fluoropyridin-2-yl)-2-fluorobenzyl)-1-(2-methoxyethyl)-1H-benzo[d]imidazole-6-carboxylic acid] | 5 mL/min/kg | 5.58
4 | COCCn1c(Cn2ccc(-c3cccc(OCc4ccc(C#N)cc4F)n3)cc2=O)nc2ccc(C(=O)O)cc21 [Example 61, 2-((6-((4-cyano-2-fluorobenzyl)oxy)-2′-oxo-[2,4′-bipyridin]-1′(2′H)-yl)methyl)-1-(2-methoxyethyl)-1H-benzo[d]imidazole-6-carboxylic acid] | <1.83 mL/min/kg | 7.74
5 | N#CCC1(Cn2c(Cc3cc(F)c(-c4cccc(OCc5ccc(C#N)cc5F)n4)cc3F)nc3ccc(C(=O)O)nc32)CC1 [Example 273, 2-(4-(6-((4-cyano-2-fluorobenzyl)oxy)pyridin-2-yl)-2,5-difluorobenzyl)-3-((1-(cyanomethyl)cyclopropyl)methyl)-3H-imidazo[4,5-b]pyridine-5-carboxylic acid] | 7 mL/min/kg | 9.28
6 | N#Cc1ccc(COc2cccc(-c3cc(F)c(Cc4nc5c(F)cc(C(=O)O)cc5n4CCOC4CC4)cc3F)n2)c(F)c1 [Example 894] | 4.17 mL/min/kg | 8.57
7 | Cc1nnc(Cn2c(Cc3cc(F)c(-c4cccc(OCc5ccc(C#N)cc5F)n4)cc3F)nc3ccc(C(=O)O)cc32)o1 [Example 748] | 1.83 mL/min/kg | 5.88
8 | N#Cc1ccc(COc2cccc(-c3ccc(Cc4nc5ccc(C(=O)O)cc5n4CC4(C(F)F)CCC4)c(F)c3)n2)c(F)c1 [Example 385, 2-(4-(6-((4-cyano-2-fluorobenzyl)oxy)pyridin-2-yl)-2-fluorobenzyl)-1-((1-(difluoromethyl)cyclobutyl)methyl)-1H-benzo[d]imidazole-6-carboxylic acid] | 5.33 mL/min/kg | 8.87
9 | N#Cc1ccc(COc2cccc(-c3cc(F)c(Cc4nc5ccc(C(=O)O)cc5n4CC4(n5ccnn5)CC4)cc3F)n2)c(F)c1 [Example 577, 1-((1-(1H-1,2,3-triazol-1-yl)cyclopropyl)methyl)-2-(4-(6-((4-cyano-2-fluorobenzyl)oxy)pyridin-2-yl)-2,5-difluorobenzyl)-1H-benzo[d]imidazole-6-carboxylic acid] | 7.5 mL/min/kg | 9.40
10 | N#Cc1ccc(COc2cccc(-c3ccc(Cc4nc5ccc(C(=O)O)cc5n4C4(CF)CC4)c(F)c3)n2)c(F)c1 [Example 381, 2-(4-(6-((4-cyano-2-fluorobenzyl)oxy)pyridin-2-yl)-2-fluorobenzyl)-1-(1-(fluoromethyl)cyclopropyl)-1H-benzo[d]imidazole-6-carboxylic acid] | <1.83 mL/min/kg | 8.13
11 | N#CCC1(Cn2c(Cc3ccc(-c4ccnc(OCc5ccc(C#N)cc5F)n4)cc3F)nc3c(F)cc(C(=O)O)cc32)CC1 [Example 168, 2-(4-(2-((4-cyano-2-fluorobenzyl)oxy)pyrimidin-4-yl)-2-fluorobenzyl)-1-((1-(cyanomethyl)cyclopropyl)methyl)-4-fluoro-1H-benzo[d]imidazole-6-carboxylic acid] | <1.83 mL/min/kg | 8.97
12 | COCCn1c(Cc2ccc(-c3csnc3OCc3ccc(C#N)cc3F)cc2F)nc2ccc(C(=O)O)cc21 [Example 88, 2-(4-(3-((4-cyano-2-fluorobenzyl)oxy)isothiazol-4-yl)-2-fluorobenzyl)-1-(2-methoxyethyl)-1H-benzo[d]imidazole-6-carboxylic acid] | 8.5 mL/min/kg | 6.53
13 | COCCn1c(Cc2cc(F)c(-c3cccc(OCc4ccc(C#N)cc4F)n3)cc2F)nc2ccc(C(=O)O)nc21 [Example 208, 2-(4-(6-((4-cyano-2-fluorobenzyl)oxy)pyridin-2-yl)-2,5-difluorobenzyl)-3-(2-methoxyethyl)-3H-imidazo[4,5-b]pyridine-5-carboxylic acid] | 3.83 mL/min/kg | 8.33
14 | COCCn1c(Cc2ccc(-c3cccc(OCc4ccc(C#N)cc4F)n3)cc2C#CC2CC2)nc2ccc(C(=O)O)cc21 [Example 257, 2-(4-(6-((4-cyano-2-fluorobenzyl)oxy)pyridin-2-yl)-2-(cyclopropylethynyl)benzyl)-1-(2-methoxyethyl)-1H-benzo[d]imidazole-6-carboxylic acid] | 5.83 mL/min/kg | 8.84
15 | COCCn1c(Cc2cc(F)c(-c3cccc(OCc4ccc(C)cc4F)n3)cc2F)nc2ccc(C(=O)O)cc21 [Example 810] | 6.83 mL/min/kg | 9.48
16 | COCCn1c(C2CCc3cc(-c4cccc(OCc5ccc(C#N)cc5F)n4)ccc32)nc2ccc(C(=O)O)cc21 (centres unmarked) [Example 36, 2-(5-(6-((4-cyano-2-fluorobenzyl)oxy)pyridin-2-yl)-2,3-dihydro-1H-inden-1-yl)-1-(2-methoxyethyl)-1H-benzo[d]imidazole-carboxylic acid] | 4 mL/min/kg | 6.97
17 | N#Cc1ccc(COc2cccc(-c3cc(F)c(Cc4nc5ccc(C(=O)O)cc5n4CC45CC(CO4)C5)cc3F)n2)c(F)c1 [Example 574] | 1.92 mL/min/kg | 9.20
18 | COCCn1c(Cc2ccc(-c3nc(OCc4ccc(C#N)cc4F)ccc3C)cc2)nc2ccc(C(=O)O)cc21 (single isomer, unassigned) [Example 23, 2-(4-(6-((4-cyano-2-fluorobenzyl)oxy)-3-methylpyridin-2-yl)benzyl)-1-(2-methoxyethyl)-1H-benzo[d]imidazole-6-carboxylic acid] | 13.8 mL/min/kg | 5.96
19 | COCCn1c(Cc2c(F)cc(-c3cncnc3OCc3ccc(C#N)cc3F)cc2F)nc2ccc(C(=O)O)cc21 [Example 189, 2-(4-(4-((4-cyano-2-fluorobenzyl)oxy)pyrimidin-5-yl)-2,6-difluorobenzyl)-1-(2-methoxyethyl)-1H-benzo[d]imidazole-carboxylic acid] | 8.5 mL/min/kg | 5.52
20 | COC(CN)Cn1c(Cc2ccc(-c3cccc(OCc4ccc(C#N)cc4F)n3)cc2F)nc2ccc(C(=O)O)cc21 (single isomer, unassigned) [Example 339, 1-(3-amino-2-methoxypropyl)-2-(4-(6-((4-cyano-2-fluorobenzyl)oxy)pyridin-2-yl)-2-fluorobenzyl)-1H-benzo[d]imidazole-6-carboxylic acid] | <1.83 mL/min/kg | 6.25
21 | N#CCC1(Cn2c(Cc3cc(F)c(-c4ccnc(OCc5ccc(C#N)cc5F)n4)cc3F)nc3c(F)cc(C(=O)O)cc32)CC1 [Example 268, 2-(4-(2-((4-cyano-2-fluorobenzyl)oxy)pyrimidin-4-yl)-2,5-difluorobenzyl)-1-((1-(cyanomethyl)cyclopropyl)methyl)-4-fluoro-1H-benzo[d]imidazole-6-carboxylic acid] | 3.67 mL/min/kg | 7.80
22 | CO[C@H]1CCC[C@@H]1n1c(Cc2cc(F)c(-c3cccc(OCc4ccc(C#N)cc4F)n3)cc2F)nc2ccc(C(=O)O)cc21 [Example 709] | 8.83 mL/min/kg | 8.32
23 | O=C(O)c1ccc2nc(Cc3ccc(-c4cccc(OCc5ccc(Cl)cc5F)n4)cc3F)n(CC3(CF)CC3)c2c1 [Example 352, 2-(4-(6-((4-chloro-2-fluorobenzyl)oxy)pyridin-2-yl)-2-fluorobenzyl)-1-((1-(fluoromethyl)cyclopropyl)methyl)-1H-benzo[d]imidazole-6-carboxylic acid] | <1.83 mL/min/kg | 8.84
24 | COCCn1c(Cc2ccc(-c3cccc(OCc4ccc(C#N)cc4F)n3)cc2C#Cc2cncnc2)nc2ccc(C(=O)O)cc21 [Example 254, 2-(4-(6-((4-cyano-2-fluorobenzyl)oxy)pyridin-2-yl)-2-(pyrimidin-5-ylethynyl)benzyl)-1-(2-methoxyethyl)-1H-benzo[d]imidazole-6-carboxylic acid] | <1.83 mL/min/kg | 7.16
25 | COCCn1c(Cc2c(F)cc(-c3ccnc(OCc4ccc(C#N)cc4F)n3)c(F)c2F)nc2ccc(C(=O)O)cc21 [Example 405, 2-(4-(2-((4-cyano-2-fluorobenzyl)oxy)pyrimidin-4-yl)-2,3,6-trifluorobenzyl)-1-(2-methoxyethyl)-1H-benzo[d]imidazole-6-carboxylic acid] | 5.5 mL/min/kg | 8.77
26 | COCCn1c(Cc2cc(F)c(-c3nc(OCc4ccc(C(F)F)cc4F)ccc3F)cc2F)nc2c(F)cc(C(=O)O)cc21 [Example 664] | 4.67 mL/min/kg | 9.17
27 | N#Cc1ccc(COc2cccc(-c3cc(F)c(Cc4nc5ccc(C(=O)O)cc5n4CCOCC(F)(F)F)cc3F)n2)c(F)c1 [Example 827] | 7.17 mL/min/kg | 8.71
28 | COCCn1c(Cc2ccc(-c3cccc(OCc4ccc(C#CC5CC5)cc4F)n3)cc2F)nc2ccc(C(=O)O)cc21 [Example 843] | 2.67 mL/min/kg | 7.77
